The results in this text go back to PMC7835878, “A Selective Competitive Inhibitor of Aldehyde Dehydrogenase 1A3 Hinders Cancer Cell Growth, Invasiveness and Stemness In Vitro” (Cancers, 2021).

Data set [1] addresses T1, Aldehyde dehydrogenase 1A3 (ALDH1A3) (Homo sapiens, UniProt P47895).
T1 sequence (P47895 2-512): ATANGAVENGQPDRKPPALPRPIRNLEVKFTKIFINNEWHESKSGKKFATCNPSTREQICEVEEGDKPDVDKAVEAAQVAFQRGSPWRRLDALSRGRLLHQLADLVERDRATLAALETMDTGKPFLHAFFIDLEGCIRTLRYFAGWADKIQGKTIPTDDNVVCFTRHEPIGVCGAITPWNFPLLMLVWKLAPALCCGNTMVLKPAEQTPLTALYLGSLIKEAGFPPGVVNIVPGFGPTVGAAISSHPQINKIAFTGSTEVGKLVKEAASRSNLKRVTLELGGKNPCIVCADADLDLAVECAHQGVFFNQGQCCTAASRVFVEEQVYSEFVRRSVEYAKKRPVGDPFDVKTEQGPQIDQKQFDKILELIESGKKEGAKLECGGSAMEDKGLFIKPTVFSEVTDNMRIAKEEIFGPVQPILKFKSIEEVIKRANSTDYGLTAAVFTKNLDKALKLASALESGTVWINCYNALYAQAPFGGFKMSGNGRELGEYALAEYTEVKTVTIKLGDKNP
As to the kind of experiment: X-ray crystal structure of the complex with NR6 (protein preincubated with […] NAD+). It counts as binding.

Data set [2] deals with the molecule itself. Put plainly: crystal structure; ALDH1A3 at 8 mg/mL preincubated with 1 mM NAD+ and 300 uM NR6; sitting drop vapor diffusion, 2.4 M sodium malonate pH 7.0, 20 °C; space group P2(1)22(1), two molecules per asymmetric unit.

In the case of `NC(=O)c1ccc[n+]([C@@H]2O[C@H](COP(=O)([O-])OP(=O)(O)OC[C@H]3O[C@@H](n4cnc5c(N)ncnc54)[C@H](O)[C@@H]3O)[C@@H](O)[C@H]2O)c1` [NAD+], the “X-ray crystal structure of the complex with NR6 (protein preincubated with 1 mM)” value in data set [1] was “both are bonded with one molecule of NAD^+ and one molecule of NR6”.

B1: human aldehyde dehydrogenase 1A3 (enzyme)
chain: MATANGAVENGQPDRKPPALPRPIRNLEVKFTKIFINNEWHESKSGKKFATCNPSTREQICEVEEGDKPDVDKAVEAAQVAFQRGSPWRRLDALSRGRLLHQLADLVERDRATLAALETMDTGKPFLHAFFIDLEGCIRTLRYFAGWADKIQGKTIPTDDNVVCFTRHEPIGVCGAITPWNFPLLMLVWKLAPALCCGNTMVLKPAEQTPLTALYLGSLIKEAGFPPGVVNIVPGFGPTVGAAISSHPQINKIAFTGSTEVGKLVKEAASRSNLKRVTLELGGKNPCIVCADADLDLAVECAHQGVFFNQGQCCTAASRVFVEEQVYSEFVRRSVEYAKKRPVGDPFDVKTEQGPQIDQKQFDKILELIESGKKEGAKLECGGSAMEDKGLFIKPTVFSEVTDNMRIAKEEIFGPVQPILKFKSIEEVIKRANSTDYGLTAAVFTKNLDKALKLASALESGTVWINCYNALYAQAPFGGFKMSGNGRELGEYALAEYTEVKTVTIKLGDKNP
notes: Aldehyde dehydrogenase 1A3 (ALDH1A3), human, recombinant; also called ALDH1A3; hALDH1A3; source: recombinant, purified
In the case of B1, the binding result in data set [2] is listed as “binds”.
